Data taken from patent US20160166654A1, “COLLAGEN-TARGETED NANOPARTICLES” (PURDUE RESEARCH FOUNDATION, priority 2011, published 2016).

Tested on: TNF-α production by human monocytes (THP-1)
Test: TNF-α production by THP-1 cells (ELISA)
Format: cell-based
Conditions: 24 hours, FIG. 8
Protocol: The biocompatibility of the nanoparticles was assessed by measuring toxicity and inflammation in THP-1 cells. Cells were seeded at a density of 250,000 cells/ml in 96-well plates (Corning) and treated with 10 ng/ml phorbol 12-myristate 13-acetate (PMA, Sigma-Aldrich) for 48 hours to induce differentiation, which was confirmed by the monocytes becoming adherent. Following a change of media, cells were treated with various concentrations of core+shell nanoparticles. Control samples received PBS (negative control) or 50 ng/ml lipopolysaccharide (LPS, Sigma-Aldrich) (positive control). After 24 hours, the media was collected for cytokine analysis and an MTT-based assay was performed to determine cell toxicity using the Aqueous One Proliferation Kit (Promega) according to manufacturer's instructions. […] After two hours of incubation in the cell culture incubator, the absorbance was read at 490 nm with a correction at 650 nm.
The ability of the particles to cause an inflammatory response was determined by running conditioned cell media on a TNF-α ELISA (PeproTech) according to manufacturer instructions. […] Following incubation with a detection antibody and an avidin-horse radish peroxidase conjugate, the samples were developed with the addition of 2,2′-azino-bis(3-ethylbenzthiazoline-6-sulphonic acid) (ABTS) liquid substrate (Sigma-Aldrich) and monitored at 405 nm with a correction at 650 nm.

lipopolysaccharide was tested, and the TNF-α production was “did induce TNF-α production”.
